Assay results from PubChem BioAssay AID651738 (Southern Research Specialized Biocontainment Screening …, 2012).
Active and inactive are the calls of the source. How the calls were made is not given here.

How the values were obtained:
[1] = Chikungunya virus CPE inhibition, VEEV inhibitor project, cell-based, set 2 (AID 651738); conditions: Chikungunya virus infected cells, CPE inhibition; at 50 µM (top of the series)
[2] = tested on: Chikungunya virus infected cells, CPE inhibition; assay: as above

Structure (SMILES) | inhibition [1] | IC50 [2]
CN1CCN(C)C(=Nc2ccc(C#N)cc2C(=O)Nc2ccccc2)C1 | 3% (inactive) | 
CN(c1ccc(OCc2ccccc2)cc1)c1nc(=O)c2cccnc2s1 |  | 1720 nM
CN1CCN(C)C(=Nc2ccc([N+](=O)[O-])cc2C(=O)Nc2ccccc2F)C1 | 8.6% (inactive) | 
O=c1c2cc(F)c(F)cc2nc(CN2CCNCC2)n1-c1ccccc1 | -1% (inactive) | 
O=c1c2cc([N+](=O)[O-])ccc2nc(CN2CCCNC2)n1-c1ccccc1 | -0.2% (inactive) | 
COc1ccc(NC(=O)c2cc([N+](=O)[O-])ccc2N=C2CN(C)CCN2C)cc1 | 2.2% (inactive) | 
COc1ccc(Nc2nc(=O)c3cccnc3s2)cc1 | 11.7% (inactive) | 
CCN1CCN(Cc2nc3ccc(-c4ccccn4)cc3c(=O)n2-c2ccccc2)CC1 | 4.3% (inactive) | 
O=c1c2cc([N+](=O)[O-])ccc2nc(CN2CCCNCC2)n1-c1ccccc1 | -3.1% (inactive) | 
CN1CCN(C)C(=Nc2ccc([N+](=O)[O-])cc2C(=O)Nc2ccccc2)C1 | -3.1% (inactive) | 
CCN1CCN(Cc2nc3ccc([N+](=O)[O-])cc3c(=O)n2-c2ccccc2F)CC1 | -0.8% (inactive) | 
CCN1CCN(C2c3ncccc3C(=O)N2c2ccccc2)CC1 (stereo not drawn) | -1.8% (inactive) | 
COc1ccc(CNc2nc(=O)c3cccnc3s2)cc1 | 0.1% (inactive) | 
